How the values were obtained:
H1703 = test: Apoptotic effects in cancer cells overexpressing Dvl, H1703; type: cell-based, human
Protocol: (§1) Compounds were tested for apoptotic effects to represent the inhibitory effects of compounds on interaction between the PDZ domain of the Dishevelled (Dlv) protein and the Fz protein (Wnt receptor). Cell lines H513 and H1703 were utilized, with test compounds (compound numbers from Tables 1 and 2) being applied at 0 (control), 10 μM and 100 μM.

[1] = system: human lung cancer (H1073) cells; test: Growth suppression and apoptosis in lung cancer cells (other tests); type: cell-based; conditions: 100 μM, after 4 days
[2] = system: human melanoma (LOX) cells; test: Growth suppression and apoptosis in melanoma cells (other tests); type: cell-based; conditions: 100 μM, after 4 days
[3] = system: human Dishevelled (Dvl) protein; test: Binding to Dishevelled protein
H513 = test: Apoptotic effects in cancer cells overexpressing Dvl, H513; type: cell-based, human; conditions: for apoptosis, %: H513, 1 day
Protocol: as §1

[4] = system: Wnt/beta-Catenin signaling; test: Inhibition of Wnt/beta-Catenin signaling in A549; type: cell-based; conditions: human lung cancer cell line A549
[5] = system: Wnt/beta-Catenin signaling; test: Inhibition of Wnt/beta-Catenin signaling in H1703; type: cell-based; conditions: human lung cancer cell line H1703
[6] = system: human lung cancer (H460) cells; test: Growth suppression and apoptosis in lung cancer H460 cells (other tests); type: cell-based; conditions: 100 μM, after 4 days

| binding to human Dishevelled (Dvl) protein [3] | SMILES | apoptosis, % (H1703; 10 μM, H1703, 4 days) [%] | apoptosis, % (H1703; 100 μM, H1703, 4 days) [%] | suppress cancer cell growth and induce apoptosis, % of the population [1] | suppress cancer cell growth and induce apoptosis, % of the population [2] [%] | apoptosis, % (H1703; 10 μM, H1703, 1 day) [%] | apoptosis, % (H1703; 100 μM, H1703, 1 day) [%] | apoptosis, % (H513; 10 μM) [%] | apoptosis, % (H513; 100 μM) [%] | suppress cancer cell growth and induce apoptosis, % of the population (H513; 100 μM, after 4 days, human mesothelioma (H513) cells) | inhibition of Wnt/beta-Catenin signaling [4] | inhibition of Wnt/beta-Catenin signaling [5] | suppress cancer cell growth and induce apoptosis, % of the population [6] |
| --- | --- | --- | --- | --- | --- | --- | --- | --- | --- | --- | --- | --- | --- |
| – | CCCCC(O)c1cc2cc(C)c(C(=O)O)cc2n1CCc1ccccc1 (stereo not shown) [Compound 1, [2-(1-Hydroxypentyl)-5-methyl-1-(2-phenylethyl)]indole-6-carboxylic acid] | 6.2 | 38.7 | – | – | – | – | – | – | – | – | – | – |
| bind | CCCCCc1c(CO)c2cc(C)c(C(=O)[O-])cc2n1CCc1ccccc1.[Na+] [Compound 6, Sodium [3-hydroxymethyl-2-(1-pentyl)-1-(2-phenylethyl)-5-methyl]indole-6-carboxylate] | – | – | up to 85.2% | 35 | 8.2 | 34.0 | 14.3 | 52.5 | over 50% | inhibit | inhibit | about 20% |

From patent US7601750B2, “Small molecule inhibition of a PDZ-domain interaction” (The Regents of the University of California, priority 2003, dated 2009)
